Data on 51 compounds can be found in ChEMBL document CHEMBL6182902, “Design, synthesis, and discovery of cinnamoyl amide derivatives as potent NagZ inhibitors with antibacterial activity” (Eur J Med Chem, 2025).

The subject of one experiment is Escherichia coli. As to the kind of experiment: Inhibition of recombinant N-terminal His-tagged Escherichia coli BL21 NagZ extracted from Escherichia coli BL21 using pNP-GlcNAc as substrate at 100 uM by absorbance based assay relative to control.
Experiment [1] in a line: Inhibition of recombinant N-terminal His-tagged Escherichia coli BL21 NagZ extracted from Escherichia coli BL21 using different concentrations of substrate pNP-GlcNAc by 4-nitrophenolate ion release based spectrophotometric analysis.
The nature of experiment [2]: Inhibition of recombinant N-terminal His-tagged Escherichia coli BL21 NagZ extracted from Escherichia coli BL21 using pNP-GlcNAc as substrate by absorbance based assay.

Calls of active or inactive are those of the source. The calls are words filed in the database; no cut-off is given here.

A word on the inhibition: it is the share of the control response that was lost under treatment. Turning to `O=C(C#Cc1ccccc1)N[C@@H](Cc1ccc(I)cc1)C(=O)O`, in the experiment with Escherichia coli, the inhibition was 29.7%. On to `O=C(CCc1ccc(Cl)c(Cl)c1)N[C@@H](Cc1ccc(I)cc1)C(=O)O`, for which, in the experiment with Escherichia coli, the inhibition came out at 73.5%.

As usually defined, the Ki is a dissociation constant, usually derived from enzyme kinetics or from competition with a known ligand. The term IC50 denotes the concentration at which inhibition is half-maximal. Turning to `O=C(/C=C/c1ccc(I)cc1)N[C@@H](Cc1ccc(I)cc1)C(=O)O`, in experiment [1], the Ki was 14.3 µM. The inhibition in the experiment on Escherichia coli amounted to 85.5%. Moreover, the IC50 in experiment [2] worked out at 110 µM. In the case of `O=C(O[C@@H]1Cc2c(O)cc(O)cc2O[C@@H]1c1ccc(O)c(O)c1)c1cc(O)c(O)c(O)c1` [EPICATECHIN GALLATE], in the experiment with Escherichia coli, the inhibition is 45.1%. Moreover, the IC50 in experiment [2] came out at 70.4 µM. For the compound `O=C(/C=C/c1c(Cl)cccc1Cl)N[C@@H](Cc1ccc(I)cc1)C(=O)O`, the inhibitory constant (Ki) in experiment [1] worked out at 22.2 µM. Besides, in the experiment with Escherichia coli, the inhibition stood at 76.9%. In experiment [2], the IC50 amounted to 84.9 µM.

For `O=C(/C=C/c1ccc(Cl)cc1)N[C@H](Cc1ccc(Br)cc1)C(=O)O`, the inhibition in the experiment with Escherichia coli was 49.8%. Turning to `O=C(N[C@@H](Cc1ccc(I)cc1)C(=O)O)/C(=C/c1ccccc1)c1ccccc1`, the Ki in experiment [1] is 15.5 µM. For the same compound, the inhibition in the experiment with Escherichia coli stood at 86.8%. Besides, the IC50 in experiment [2] is 39.6 µM.

`O=C(/C=C/c1ccc(Cl)c(Cl)c1)N[C@@H](Cc1ccccc1)C(=O)O`: the inhibition in the experiment with Escherichia coli is 50.4%. For `O=C(/C=C/c1ccc(O)cc1)N[C@@H](Cc1ccc(I)cc1)C(=O)O`, the inhibition in the experiment on Escherichia coli stood at 46.2%.

For the compound `O=C(/C=C/c1ccc2ccccc2c1)N[C@@H](Cc1ccc(I)cc1)C(=O)O`, the Ki in experiment [1] stood at 7.4 µM. Further, in the experiment with Escherichia coli, the inhibition was found to be 87%. The IC50 in experiment [2] was determined as 10.8 µM. Consider `O=C(/C=C/c1ccc(Cl)c(Cl)c1)N[C@H](Cc1ccc(Br)cc1)C(=O)O`, for which, in experiment [1], the Ki amounted to 3.5 µM. Further, in the experiment on Escherichia coli, the inhibition amounted to 87%. Moreover, in experiment [2], the IC50 worked out at 6.3 µM. For `O=C(/C=C\c1ccccc1)N[C@@H](Cc1ccc(I)cc1)C(=O)O`, the inhibition in the experiment on Escherichia coli was found to be 12%.

`O=C(O[C@@H]1Cc2c(O)cc(O)cc2O[C@H]1c1cc(O)c(O)c(O)c1)c1cc(O)c(O)c(O)c1` [GALLOCATECHIN GALLATE]: in the experiment with Escherichia coli, the inhibition was determined as 54.9%. The IC50 in experiment [2] is 64.3 µM. For the compound `COC(=O)C(Cc1ccc(Br)cc1)NC(=O)/C=C/c1ccc(Cl)c(Cl)c1` (racemic), in the experiment with Escherichia coli, the inhibition entry was “inactive”. In the case of `O=C(/C=C/c1ccc(F)cc1)NC(Cc1ccc(Br)cc1)C(=O)O` (racemic), the inhibition in the experiment with Escherichia coli was 17.5%.

With `O=C(/C=C/c1ccc(O)c(O)c1)O[C@H](Cc1ccc(O)c(O)c1)C(=O)O` [ROSMARINIC ACID], the inhibition in the experiment with Escherichia coli worked out at 64.3%. The IC50 in experiment [2] turned out to be 56.1 µM. Take `O=C(/C=C/c1ccc(O)c(O)c1)N[C@@H](Cc1ccc(I)cc1)C(=O)O`: the inhibition with Escherichia coli was 66.5%.

In the case of `C=CCc1ccc(O)c(-c2cc(CC=C)ccc2O)c1` [MAGNOLOL], the inhibition with Escherichia coli came out at 58.9%. In addition, the IC50 in experiment [2] is 88.3 µM.

For `CC1(C)[C@@H](O)CC[C@]2(C)[C@H]3C(=O)C=C4[C@H]5C[C@@](C)(C(=O)O)CC[C@]5(C)CC[C@@]4(C)[C@]3(C)CC[C@@H]12` [18alpha-GLYCYRRHETINIC ACID], the inhibition in the experiment on Escherichia coli was 69.6%. Besides, in experiment [2], the IC50 was 75.5 µM. `COC(=O)C(Cc1ccc(Br)cc1)NC(=O)/C=C/c1ccc(F)cc1` (racemic): the inhibition in the experiment with Escherichia coli worked out at 7.2%. On the same count and under the same terms, the same measure for `O=C(/C=C/c1ccc(Cl)c(Cl)c1)N[C@@H](Cc1c[nH]c2ccccc12)C(=O)O`: 68.2%; for `O=C(/C=C/c1ccc([N+](=O)[O-])o1)N[C@@H](Cc1ccc(I)cc1)C(=O)O`: 48.4%.

For the compound `O=C(/C=C/c1ccc(F)c(F)c1)N[C@@H](Cc1ccc(I)cc1)C(=O)O`, the inhibition with Escherichia coli came out at 30.5%.

For `O=C(/C=C/c1ccccc1)N[C@@H](Cc1ccc(I)cc1)C(=O)O`, the inhibition with Escherichia coli was 20.2%.

Consider `O=C(/C=C/c1cccc(Cl)c1)N[C@@H](Cc1ccccc1)C(=O)O`, for which, in the experiment on Escherichia coli, the inhibition was 19.9%. With `O=C(/C=C/c1ccc([N+](=O)[O-])o1)N[C@H](Cc1ccc(Br)cc1)C(=O)O`, in the experiment with Escherichia coli, the inhibition came out at 38.2%. For the compound `COC(=O)[C@H](Cc1ccccc1)NC(=O)/C=C/c1ccc(Br)cc1`, the inhibition entry with Escherichia coli was “inactive”. In the case of `CC(=O)N[C@H]1/C(=N/OC(=O)Nc2ccccc2)O[C@H](CO)[C@@H](O)[C@@H]1O` [PUGNAC], the Ki in experiment [2] was found to be 75 nM. On to `O=C(/C=C/c1ccc(Cl)c(Cl)c1)NC(Cc1ccc(Cl)cc1)C(=O)O` (racemic), for which the inhibition with Escherichia coli turned out to be 77.1%.

Turning to `O=C(/C=C/c1ccc(Br)cc1)N[C@@H](Cc1ccccc1)C(=O)O`, the inhibition in the experiment with Escherichia coli was 16.9%.

Regarding `COC(=O)[C@H](Cc1ccc(I)cc1)NC(=O)/C=C/c1ccc(Cl)c(Cl)c1`, in the experiment on Escherichia coli, the inhibition entry is “inactive”. Consider `CC1(C)CC[C@]2(C(=O)O)CC[C@]3(C)C(=CC[C@@H]4[C@@]5(C)CC[C@H](O)[C@@](C)(CO)[C@@H]5CC[C@]43C)[C@@H]2C1` [HEDERAGENIN], for which the inhibition in the experiment on Escherichia coli was 29.4%. Also, the IC50 in experiment [2] was 101 µM. As to `O=C(/C=C/c1ccco1)N[C@@H](Cc1ccc(I)cc1)C(=O)O`, the inhibition in the experiment on Escherichia coli amounted to 35.8%. The same measure, in the same setting: the same measure for `O=C(/C=C/c1ccc(I)cc1)N[C@H](Cc1ccc(Br)cc1)C(=O)O`: 76.1%. On to `O=C(/C=C/c1ccccc1)N[C@H](Cc1ccc(Br)cc1)C(=O)O`, for which, in the experiment with Escherichia coli, the inhibition is 15.9%.

With `O=C(O[C@@H]1Cc2c(O)cc(O)cc2O[C@@H]1c1cc(O)c(O)c(O)c1)c1cc(O)c(O)c(O)c1` [EPIGALOCATECHIN GALLATE], in the experiment with Escherichia coli, the inhibition is 51.4%. Besides, the IC50 in experiment [2] is 61.2 µM. Turning to `O=C(/C=C/c1ccc(F)c(Cl)c1)N[C@@H](Cc1ccc(I)cc1)C(=O)O`, the inhibition in the experiment on Escherichia coli is 72%. `COC(=O)[C@H](Cc1ccccc1)NC(=O)/C=C/c1cccc(Cl)c1`: in the experiment on Escherichia coli, the inhibition is 11.6%. `CC1=C(O)C(=O)C=C2C1=CC=C1[C@@]2(C)CC[C@@]2(C)[C@@H]3C[C@](C)(C(=O)O)CC[C@]3(C)CC[C@]12C` [CELASTROL]: in the experiment on Escherichia coli, the inhibition stood at 50%. Moreover, the IC50 in experiment [2] was 62.8 µM. As for `COC(=O)[C@H](Cc1ccc(I)cc1)NC(=O)/C=C/c1ccc(F)cc1`, the inhibition with Escherichia coli worked out at 14%.

With `O=C(/C=C/c1ccc([N+](=O)[O-])cc1)N[C@@H](Cc1ccc(I)cc1)C(=O)O`, in the experiment on Escherichia coli, the inhibition turned out to be 37.2%.

As for `O=C(O)[C@H](Cc1ccc(I)cc1)NC(=O)[C@H]1C[C@@H]1c1ccccc1`, the inhibition in the experiment on Escherichia coli amounted to 29.1%. Still for that read-out and setting: the same measure for `COC(=O)C(Cc1ccc(Br)cc1)NC(=O)/C=C/c1ccc(Cl)cc1` (racemic): “inactive”; for `O=C(/C=C/c1ccc(F)c(Cl)c1)N[C@H](Cc1ccc(Br)cc1)C(=O)O`: 71.6%. Take `O=C(/C=C/c1ccc(F)cc1)N[C@@H](Cc1ccc(I)cc1)C(=O)O`: the inhibition with Escherichia coli amounted to 34.3%. Consider `O=C(/C=C/c1ccc(Cl)cc1)NC(Cc1ccc(Br)cc1)C(=O)O` (racemic), for which the inhibition in the experiment with Escherichia coli is 37.2%. Turning to `O=C(/C=C/c1cccc([N+](=O)[O-])c1)N[C@@H](Cc1ccc(I)cc1)C(=O)O`, the inhibition in the experiment on Escherichia coli came to 42.1%. For `O=C(/C=C/c1cc(F)c(F)c(F)c1)N[C@@H](Cc1ccc(I)cc1)C(=O)O`, the inhibition in the experiment on Escherichia coli worked out at 60.3%.

Regarding `COC(=O)[C@H](Cc1ccccc1)NC(=O)/C=C/c1ccc(Cl)c(Cl)c1`, in the experiment with Escherichia coli, the inhibition entry was “inactive”. The same measure, in the same setting: under `O=C(/C=C/c1ccc(Br)cc1)N[C@H](Cc1ccc(Br)cc1)C(=O)O` stands 46.5%; under `O=C(CCc1ccccc1)N[C@@H](Cc1ccc(I)cc1)C(=O)O`, 21.5%.
